Measured values: PubChem BioAssay AID624167 (Sanford-Burnham Center for Chemical Genomics, 2012)
The source made the active and inactive calls.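 The calls were made as follows: active = mean IC50 for reducing PEG3 promoter reporter signal at or below a set limit, with IC50 above the limit in both counter screens; inactive = the rest, including counter screen hits.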

Key:
Test in all cases: Peg3 promoter luciferase inhibitors, potency, dose response, cell-based, HeLa, CREF/GAPDH counter-screen panel (AID 624167)
Rat fibroblasts (CREF) = conditions: CREF/GAPDH counter-screens
PEG-3 [1] = target: PEG-3 (UniProt Q6IN02); conditions: HeLa PEG-Prom luciferase reporter, overnight, CREF/GAPDH counter-screens, mean of runs
Sequence of PEG-3 (UniProt Q6IN02) (Q6IN02 whole entry, looked up): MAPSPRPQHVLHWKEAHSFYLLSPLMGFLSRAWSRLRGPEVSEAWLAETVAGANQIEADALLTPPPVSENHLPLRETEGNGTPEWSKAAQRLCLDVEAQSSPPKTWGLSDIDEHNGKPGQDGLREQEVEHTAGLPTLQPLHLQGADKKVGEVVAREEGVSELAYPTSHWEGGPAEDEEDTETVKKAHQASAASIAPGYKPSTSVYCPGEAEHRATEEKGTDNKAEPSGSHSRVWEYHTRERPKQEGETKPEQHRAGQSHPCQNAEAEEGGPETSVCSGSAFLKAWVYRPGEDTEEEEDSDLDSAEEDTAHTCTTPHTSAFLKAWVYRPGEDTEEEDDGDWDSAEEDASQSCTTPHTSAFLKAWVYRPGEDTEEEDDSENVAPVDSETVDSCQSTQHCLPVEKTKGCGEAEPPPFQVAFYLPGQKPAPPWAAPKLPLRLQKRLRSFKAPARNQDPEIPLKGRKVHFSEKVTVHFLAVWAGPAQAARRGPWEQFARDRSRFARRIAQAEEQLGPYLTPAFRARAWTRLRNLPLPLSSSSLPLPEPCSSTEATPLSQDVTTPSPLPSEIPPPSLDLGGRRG

PEG-3 [2] = conditions: HeLa PEG-Prom luciferase reporter, overnight, CREF/GAPDH counter-screens
[3] = run 1, dose range 1, individual replicate IC50 per panel
[4] = run 2, dose range 1, individual replicate IC50 per panel

| IC50 (PEG-3 [1]) | SMILES | IC50 (Rat fibroblasts (CREF); mean of runs) | IC50 (Rat fibroblasts (CREF); [3]) [µM] | IC50 (Rat fibroblasts (CREF); [4]) [µM] | IC50 (PEG-3 [2]; [3]) [µM] | IC50 (PEG-3 [2]; [4]) [µM] |
| --- | --- | --- | --- | --- | --- | --- |
| 6.41 µM | CC(=O)N1CCCC(c2cc(C(=O)Nc3ccccc3)no2)C1 (stereo not drawn) | 9.51 µM | 9.26 | 9.76 | 4.87 | 7.94 |
| 3.66 µM | CN(C)c1ccc(Nc2nc(N)c3ccccc3n2)cc1 | 0.995 µM | 0.869 | 1.12 | 2.51 | 4.82 |
| 1.03 µM | Cc1ccc(-c2cc3c(N=O)c4ccccc4c-3n[nH]2)cc1 | 18.8 µM | 2.73 | 34.9 | 1.2 | 0.86 |
| 0.571 µM | Cc1ccc(-c2nc(-c3ccccn3)no2)cc1 | 0.48 µM | 0.288 | 0.672 | 0.479 | 0.663 |
| 0.665 µM | Cc1ccc(C(=O)Nc2cc3ccccc3oc2=O)cc1 | 1.66 µM | 0.409 | 2.9 | 0.327 | 1 |
| 3.28 µM | COc1ccc(C(=O)CN2C(=O)c3ccccc3S2(=O)=O)cc1 | 3.15 µM | 3.25 | 3.04 | 2.96 | 3.59 |
| 2.76 µM | Cc1ccc(-c2cc3c(nn2)-c2ccccc2C3=O)cc1 | 0.337 µM | 0.27 | 0.403 | 2.56 | 2.95 |
| 3.29 µM | CN(C)c1ccc(/C=C/c2ccc3ccccc3n2)cc1 | 2.69 µM | 2.15 | 3.22 | 2.09 | 4.48 |
| 4.06 µM | C(=N\Nc1nc2ccccc2[nH]1)/c1ccccn1 | 1.48 µM | 1.14 | 1.83 | 4.26 | 3.87 |
| 6.72 µM | Oc1c(Br)cc(Br)c2cccnc12 | 9.01 µM | 11.8 | 6.27 | 4.4 | 9.05 |
| 8 µM | Cc1ccc2nc(C)cc(Nc3ccc([N+](=O)[O-])cc3)c2c1 | 8.48 µM | 8.42 | 8.54 | 10.6 | 5.38 |
| 0.538 µM | CCCN1C=CC(=C2C(=O)c3ccccc3C2=O)C=C1 | 0.538 µM | 0.469 | 0.606 | 0.783 | 0.292 |
| 1.75 µM | C/C(=N\NC(=O)c1n[nH]c2c1CCC2)c1cccs1 | 2.49 µM | 2.49 | 2.49 | 1.17 | 2.33 |
| 0.391 µM | O=C(O)c1cccc(COc2ccc(CO)cc2Cl)c1 | 8.35 µM | 8.63 | 8.08 | 0.202 | 0.581 |
| 0.957 µM | CCN1C=CC(=C2C(=O)c3ccccc3C2=O)C=C1 | 0.85 µM | 0.947 | 0.753 | 0.834 | 1.08 |
| 3.25 µM | O=c1c(Cl)c(N2CCCCC2)cnn1-c1nc2ccccc2[nH]1 | 0.714 µM | 0.81 | 0.618 | 3.02 | 3.49 |
| 7.74 µM | COc1cccc(NC(=O)c2nc(S(C)(=O)=O)ncc2Cl)c1 | 9.29 µM | 10.2 | 8.36 | 8.84 | 6.64 |
| inactive | CCOc1ccc2nc(NC(=O)c3ccccn3)sc2c1 | 3.5 µM | 2.81 | 4.18 | 4.39 | > 100 |
| 6.81 µM | C/C(=N/NC(=O)c1cc(C2CC2)[nH]n1)c1cccs1 | 3.84 µM | 3.85 | 3.83 | 5.93 | 7.69 |
| 1.66 µM | C(=NNc1ccc2ccccc2n1)c1ccccn1 | 1.44 µM | 1.33 | 1.55 | 1.21 | 2.11 |
| 4.06 µM | Fc1ccc(-c2nnc(NC3=NCCCCC3)o2)cc1 | 3.58 µM | 3.94 | 3.23 | 4.11 | 4 |
| 1.01 µM | COC1=CC(=O)c2c(ccc3ncnc(N)c23)C1=O | 0.935 µM | 0.875 | 0.995 | 1.48 | 0.547 |
| 6.1 µM | Brc1ccc(N=Nc2ccc3ccccc3n2)cc1 | 0.456 µM | 0.213 | 0.698 | 5.75 | 6.45 |
| 3.9 µM | COc1cc(SC)ccc1C(=O)Nc1ncc(C)s1 | 1.94 µM | 1.58 | 2.3 | 3.02 | 4.77 |

| IC50 (PEG-3 [1]) | SMILES | IC50 (Rat fibroblasts (CREF); mean of runs) | IC50 (Rat fibroblasts (CREF); [3]) [µM] | IC50 (Rat fibroblasts (CREF); [4]) [µM] | IC50 (PEG-3 [2]; [3]) [µM] | IC50 (PEG-3 [2]; [4]) [µM] |
| --- | --- | --- | --- | --- | --- | --- |
| 9.98 µM | O=C(CNCCC1=CCCCC1)Nc1ccc(N2CCCCCC2)cc1 | 16.6 µM | 16.5 | 16.8 | 10.6 | 9.37 |
| 1.23 µM | O=C(Nc1ccc([N+](=O)[O-])cc1)C(=O)Nc1cccc(C(=O)O)c1 | 2.67 µM | 2.35 | 3 | 1.05 | 1.4 |
| 10.8 µM | COCCn1c(C)cc(C(=O)COC(=O)c2cccc(O)c2)c1C | 0.611 µM | 0.468 | 0.755 | 16.1 | 5.48 |
| 0.552 µM | COc1ccc(-c2nc(-c3ccccn3)no2)cc1 | 0.529 µM | 0.472 | 0.586 | 0.765 | 0.338 |
| 1.51 µM | O=C(/C=C\Nc1ccc2c(c1)OCO2)c1ccccn1 | 1.09 µM | 1.04 | 1.14 | 1.15 | 1.87 |
| 4.18 µM | Cc1cccc(/C=N/Nc2ccc3ccccc3n2)c1 | 1.41 µM | 2.44 | 0.37 | 3.78 | 4.58 |
| inactive | C(=NN1CCCCCC1)c1ccc2ccccc2n1 | 2.58 µM | 2.12 | 3.04 | 3.59 | > 100 |
| 1.24 µM | CCCCCN1C=CC(=C2C(=O)c3ccccc3C2=O)C=C1 | 0.729 µM | 0.371 | 1.09 | 1.08 | 1.4 |
| 0.865 µM | COC(=O)Cc1[nH]n(-c2nc3ccccc3s2)c(=O)c1C(C)=Nc1ccc(C)cc1 | 14.8 µM | 25.2 | 4.52 | 0.98 | 0.751 |
| 1.01 µM | Cc1ccc2nc(-c3ccccc3)cn2c1 | 0.783 µM | 0.619 | 0.948 | 1.02 | 1.01 |
| 2.74 µM | O=c1oc2ccccc2cc1-c1cn2ccccc2n1 | 4.47 µM | 2.84 | 6.1 | 2.31 | 3.17 |
| 0.327 µM | COc1ccc(OCc2cccc(C(=O)O)c2)cc1 | 10.5 µM | 10.2 | 10.8 | 0.263 | 0.39 |
| inactive | Cc1ccc2oc(/N=C(\N)NC(=O)C(C)(C)C)nc2c1 | 2.99 µM | 0.412 | 5.57 | 0.725 | > 100 |
| 3.76 µM | CC(=O)NC(c1ccc(N(C)C)cc1)c1cc(Cl)c2cccnc2c1O (stereo not drawn) | 53.7 µM (inactive) | > 100 | 7.34 | 3.14 | 4.37 |
| 3.41 µM | CC(C)CC(=NNC(=O)c1ccncc1)c1cc(Cl)ccc1O | 10.3 µM | 8.21 | 12.3 | 3.35 | 3.46 |
| 4.8 µM | Clc1cccc(-c2nc(-c3ccccn3)no2)c1 | 2.23 µM | 1.82 | 2.63 | 3.68 | 5.92 |
| 2.37 µM | C=CCn1c(C)cc(C2=NNC(=NCC)SC2)c1C | 1.72 µM | 1.49 | 1.95 | 3.02 | 1.72 |
| inactive | CC(C)(C)c1ccc(C(=O)O/N=C(\N)c2ccccn2)cc1 | 9.84 µM | 9.33 | 10.3 | 0.367 | > 100 |
| 8.99 µM | OCCNc1c2ccccc2nc2ccccc12 | 0.77 µM | > 80 | 0.77 | 10.2 | 7.76 |
| 1.61 µM | COc1cc(/C=N/O)ccc1OCc1ccc(C(=O)O)cc1 | 9.43 µM | 10.1 | 8.8 | 1.71 | 1.51 |
| 6.13 µM | Cc1cc(NC(c2cccnc2)c2ccc3cccnc3c2O)no1 (stereo not drawn) | 5.72 µM | 5.65 | 5.79 | 7.22 | 5.04 |
| 4.61 µM | CCN(CCO)c1ccc(N=Nc2cc(C)[nH]n2)cc1 | 2.24 µM | 1.52 | 2.97 | 3 | 6.22 |
| inactive | CN=c1scc(-c2cccs2)n1/N=C/c1ccccc1O | 5.44 µM | 5.28 | 5.6 | 0.26 | > 100 |
| 1.83 µM | O=C(O)c1cccc(COc2ccccc2Cl)c1 | 20.2 µM | 38.8 | 1.55 | 0.679 | 2.97 |
